Assay results: article PMC7115507 (European Journal of Medicinal Chemistry, 2019)
Entries after “also recorded” stand apart in the source; their conditions may differ. Like-named read-outs stand apart in the source and are kept apart here.

What was measured:
SAH hydrolase = SAH hydrolase (Homo sapiens, UniProt P23526); format: biochemical
CHIKV [1] = format: cell-based, Chikungunya virus
Vero E6 cells = assay: Cytotoxicity; details: highest dose tested
HSV-1 = details: cited from earlier work
HSV-2 = details: cited from earlier work
SARS-CoV [2] = format: cell-based, severe acute respiratory syndrome coronavirus
MERS-CoV [3] = format: cell-based, Middle East respiratory syndrome coronavirus
ZIKV [4] = format: cell-based, Zika virus
CHIKV [5] = details: cited from earlier work
SARS-CoV [6] = details: cited from earlier work
MERS-CoV [7] = details: cited from earlier work
ZIKV [8] = details: cited from earlier work

SAH hydrolase, sequence (P23526 whole entry): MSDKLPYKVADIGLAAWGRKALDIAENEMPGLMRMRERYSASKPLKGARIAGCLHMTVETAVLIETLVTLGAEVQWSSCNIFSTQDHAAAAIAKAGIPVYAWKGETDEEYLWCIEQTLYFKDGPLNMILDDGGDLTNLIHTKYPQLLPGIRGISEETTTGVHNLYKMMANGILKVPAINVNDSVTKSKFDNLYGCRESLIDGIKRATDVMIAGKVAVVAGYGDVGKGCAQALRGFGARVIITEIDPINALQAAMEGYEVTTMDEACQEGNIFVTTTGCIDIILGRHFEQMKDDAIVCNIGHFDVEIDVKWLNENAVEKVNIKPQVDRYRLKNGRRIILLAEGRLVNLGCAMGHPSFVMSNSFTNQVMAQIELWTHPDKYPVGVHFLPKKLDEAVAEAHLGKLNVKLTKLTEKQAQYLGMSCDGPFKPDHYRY

Nc1ncnc2c1ncn2[C@H]1[C@H](O)[C@H](O)[C@@H](CCO)[C@H]1F [Compound 3a, (1R,2S,3S,4R,5R)-3-(6-Amino-9H-purin-9-yl)-4-fluoro-5-(2-hydroxyethyl)cyclopentane-1,2-diol]
potency towards SAH hydrolase relative to 3d (SAH hydrolase): 5.6 times | selectivity index (SI) (CHIKV [1]): more than 2083 | concentration up to which no noticeable cytotoxicity was seen (Vero E6 cells): > 250 µM

Nc1ncnc2c1ncn2C1CC(CCO)C(O)C1O (single isomer, unassigned; (-)) [(−)-homoaristeromycin]
activity against HSV-1 (in words) (HSV-1): inactive | activity against HSV-2 (in words) (HSV-2): inactive

Nc1ncnc2c1ncn2[C@H]1[C@H](O)[C@H](O)[C@@H](CCO)C1(F)F [Compound 3d]
antiviral activity against CHIKV (in words) (CHIKV [1]): did not exhibit antiviral activity | antiviral activity against SARS-CoV (in words) (SARS-CoV [2]): did not exhibit antiviral activity | antiviral activity against MERS-CoV (in words) (MERS-CoV [3]): did not exhibit antiviral activity | antiviral activity against ZIKV (in words) (ZIKV [4]): did not exhibit antiviral activity

Nc1ncnc2c1ncn2[C@H]1[C@H](O)[C@H](O)[C@@H](CO)C1(F)F [Compound 2b, 6,6′-difluoro-aristeromycin]
antiviral activity against CHIKV (in words) (CHIKV [5]): broad-spectrum antiviral activity | antiviral activity against CHIKV (in words) (CHIKV [5]; listed as 2): potent antiviral activities | antiviral activity against SARS-CoV (in words) (SARS-CoV [6]): broad-spectrum antiviral activity; also recorded: potent antiviral activities | antiviral activity against MERS-CoV (in words) (MERS-CoV [7]): broad-spectrum antiviral activity; also recorded: potent antiviral activities | antiviral activity against ZIKV (in words) (ZIKV [8]): broad-spectrum antiviral activity | antiviral activity against ZIKV (in words) (ZIKV [8]; listed as 2): potent antiviral activities

Nc1ncnc2c1ncn2[C@H]1[C@H](O)[C@H](O)[C@@H](CO)[C@H]1F [Compound 2a, 6′-β-fluoro-aristeromycin]
antiviral activity against CHIKV (in words) (CHIKV [1]): inactive

OCC[C@@H]1[C@@H](O)[C@@H](O)[C@H](n2cnc3c(O)ncnc32)[C@@H]1F [Compound 3c, 9-((1S,2R,3R,4R,5S)-2-fluoro-4,5-dihydroxy-3-(2-hydroxyethyl)cyclopentyl)-1,9-dihydro-6H-purin-6-one]
inhibition of SAH hydrolase at the highest dose tested (in words) (SAH hydrolase): no inhibitory activity was observed
